Reference: patent US4771070A (Warner-Lambert Company, priority 1986, dated 1988)
In brackets after ≈: the same amount, converted by molar mass. Structures can show the parent of a compound that is named as a salt. Where two headings read alike, the source gives them in different places.

Assays:
[1] = assay type: physicochemical
Experimental: After addition of the base solution, a white suspension formed, and some material coagulated on the walls of the solution container.
The resulting solution was concentrated to a final volume of about 2 ml on a rotary evaporator and then diluted to 40 ml with water. Two-milliliter aliquots of this solution were added to each of several 6-ml vials.
The solution was concentrated in vacuo to remove methanol and diluted to 10 ml for lyophilization. The lyophilized solid is white and powdery.

Alcaligenes viscolactis = test: Antimicrobial activity of CL-1957A, paper disc growth inhibition zone; assay type: cell-based; settings: ATCC21698, 16 h, ATCC 21698, Mycin medium, 500 μg/ml, read-out: Diameter of Inhibition Zone
Experimental: (§1) The disc and inoculated medium were incubated for 16 hours at 37° C. and the diameter of the resulting growth inhibition zone, if any, was measured.

Bacillus subtilis = test: as above; assay type: cell-based
Experimental: as §1

Branhamella catarrahalis = test: as above; assay type: cell-based; settings: 16 h; PD 03596, CAP medium, 500 μg/ml; read-out: Diameter of Inhibition Zone
Experimental: as §1

Micrococcus luteus = test: as above; assay type: cell-based; settings: 16 h, PD 05064, PAS medium, read-out: Diameter of Inhibition Zone
Experimental: as §1

Proteus vulgaris = test: as above; assay type: cell-based; settings: 16 h, PD 05062, PAS medium, read-out: Diameter of Inhibition Zone
Experimental: as §1

Staphylococcus aureus = test: as above; assay type: cell-based; settings: 16 h, read-out: Diameter of Inhibition Zone; for zone of inhibition at 10 µg/mL: 10 μg/ml; for zone of inhibition at 500 µg/mL: 500 μg/ml; for zone of inhibition at 100 µg/mL: 100 μg/ml
Experimental: as §1

Xanthomonas phaseoli = test: as above; assay type: cell-based; settings: 16 h, PD 06002, CMA medium, read-out: Diameter of Inhibition Zone
Experimental: as §1

P388 leukemia = test: In vivo activity of CL-1957A against P388 leukemia in mice
[2] = tested on: L1210 mouse leukemia cells; test: Cytotoxicity of CL-1957A in vitro; assay type: cell-based; settings: read-out: ID50 (the source's name)
Text: (§2) The ID50 values appear in Table XII.

[3] = tested on: human colon adenocarcinoma cells; test: Cytotoxicity of CL-1957A in vitro; assay type: cell-based; settings: read-out: ID50 (the source's name)
Text: as §2

[4] = tested on: Ridgeway Osteogenic Sarcoma; test: In vivo activity of CL-1957A against Ridgeway Osteogenic Sarcoma in mice
Experimental: Male AKR mice were pooled, inoculated subcutaneously by trocar with 30-60 mg fragments of Ridgeway Osteogenic Sarcoma, repooled, and randomly distributed to treatment groups on Day 0.
Appropriate mice received intrapertioneal injections of the test compound dissolved in 0.9% sodium chloride solution on Days 2, 6, and 10, and then weekly thereafter. Tumors were measured on Days 24 and 35. The results are presented in Table XIII as % T/C (as defined below). % T/C values of less than 40 on Day 35 are considered active. [formula]

B16 Melanoma = test: In vivo activity of CL-1957A against B16 Melanoma in mice; settings: ratio of median life span
Text: The activity of the compound against B16 melanoma is presented in Table XIV in terms of % T/C values which represents the ratio of median life span in days of treated mice to untreated mice, expressed as a percentage.

[5] = assay type: physicochemical; settings: for Percent Remaining After One Week: 168 h
Experimental: The thin-film preparations which resulted were assayed for stability by comparing the purity of the film against a standard sample by HPLC techniques.

physchem = assay type: physicochemical

With CCC(C=CC1OC(=O)C=CC1C)=CC(C)CC=CC(C)=CC(C)C(=O)C(C)C(O)C(C)CC(C)=CC(=O)O [N-methyl-D-glucamine salt] the solubility in water [1] was “soluble in water”.

CCC(C=CC1OC(=O)C=CC1C)=CC(C)CC=CC(C)=CC(C)C(=O)C(C)C(O)C(C)CC(C)=CC(=O)O (stereo not drawn) [CL-1957A, 19-(3,6-dihydro-3-methyl-6-oxo-2H-pyran-2-yl)-17-ethyl-6-hydroxy-3,5,7,9, 11,15-hexamethyl-8-oxo 2,10,12 16,18-nonadecapentaenoic acid] gave a zone of inhibition at 500 µg/mL (Alcaligenes viscolactis) of 19 mm, a zone of inhibition at 10 µg/mL (Bacillus subtilis; 16 h, PD 04969, #169 medium, 10 μg/ml, read-out: Diameter of Inhibition Zone) of 0 mm and a zone of inhibition at 100 µg/mL (Bacillus subtilis; ATCC6633, 16 h, read-out: Diameter of Inhibition Zone, ATCC 6633, #169 medium, 100 μg/ml) of 16 mm. It also gave a zone of inhibition at 10 µg/mL (Bacillus subtilis; ATCC6633, 16 h, read-out: Diameter of Inhibition Zone, ATCC 6633, Mycin medium, 10 μg/ml) of 0 mm, a zone of inhibition at 100 µg/mL (Bacillus subtilis; ATCC6633, 16 h, read-out: Diameter of Inhibition Zone, ATCC 6633, Mycin medium, 100 μg/ml) of 0 mm and a zone of inhibition at 500 µg/mL (Branhamella catarrahalis) of 30 mm. It also gave a zone of inhibition at 10 µg/mL (Micrococcus luteus; 10 μg/ml) of 0 mm, a zone of inhibition at 100 µg/mL (Micrococcus luteus; 100 μg/ml) of 0 mm and a zone of inhibition at 10 µg/mL (Proteus vulgaris; 10 μg/ml) of 0 mm. The zone of inhibition at 100 µg/mL (Proteus vulgaris; 100 μg/ml) was 0 mm, the zone of inhibition at 500 µg/mL (Proteus vulgaris; 500 μg/ml) was 0 mm and the zone of inhibition at 10 µg/mL (Staphylococcus aureus; PD 02482, PAS medium) was 0 mm. The zone of inhibition at 500 µg/mL (Staphylococcus aureus; PD 02482, PAS medium) was 16 mm, the zone of inhibition at 10 µg/mL (Staphylococcus aureus; PD 5045, AM-9 medium) was 0 mm and the zone of inhibition at 100 µg/mL (Staphylococcus aureus; PD 5045, AM-9 medium) was 17 mm. The zone of inhibition at 500 µg/mL (Staphylococcus aureus; PD 5045, AM-9 medium) was 22 mm, the zone of inhibition at 10 µg/mL (Staphylococcus aureus; PD 5045, AM-10 medium) was 0 mm and the zone of inhibition at 100 µg/mL (Staphylococcus aureus; PD 5045, AM-10 medium) was 19 mm. For the same compound, the zone of inhibition at 500 µg/mL (Staphylococcus aureus; PD 5045, AM-10 medium) was 22 mm, the zone of inhibition at 10 µg/mL (Xanthomonas phaseoli; 10 μg/ml) was 0 mm and the zone of inhibition at 100 µg/mL (Xanthomonas phaseoli; 100 μg/ml) was 0 mm. The zone of inhibition at 500 µg/mL (Xanthomonas phaseoli; 500 μg/ml) was 0 mm, the “% T/C” value (P388 leukemia; 12.5 μg/kg/injection, Days 1-5, Test 1) was 118% and the “% T/C” value (P388 leukemia; 25 μg/kg/injection, Days 1-5, Test 1) was 127%. For the same compound, the “% T/C” value (P388 leukemia; 100 μg/kg/injection, Days 1-5, Test 1) was “Toxic”, the “% T/C” value (P388 leukemia; 100 μg/kg/injection, Days 1-5, Test 2) was “Toxic” and the IC50 [2] was 0.118 ng/mL (≈ 0.218 nM). For the same compound, the IC50 [3] was 0.02 ng/mL (≈ 0.037 nM), the “% T/C” value ([4]; 0.125 mg/kg/injection i.p. Days 2, 6, 10, then weekly, Day 24) was 14% and the “% T/C” value ([4]; 0.125 mg/kg/injection i.p. Days 2, 6, 10, then weekly, Day 35, less than 40 considered active) was 22%. For the same compound, the “% T/C” value ([4]; 0.25 mg/kg/injection i.p. Days 2, 6, 10, then weekly, Day 24) was 15%, the “% T/C” value ([4]; 0.25 mg/kg/injection i.p. Days 2, 6, 10, then weekly, Day 35, less than 40 considered active) was 9% and the “% T/C” value ([4]; 0.50 mg/kg/injection i.p. Days 2, 6, 10, then weekly, Day 24) was 0%. The “% T/C” value ([4]; 0.50 mg/kg/injection i.p. Days 2, 6, 10, then weekly, Day 35, less than 40 considered active) was 0%, the “% T/C” value (B16 Melanoma; 0.075 mg/kg/injection i.p. Days 1, 5, 9) was 201% and the “% T/C” value (B16 Melanoma; 0.60 mg/kg/injection i.p. Days 1, 5, 9) was “Toxic”. For the same compound, the “stability of ascorbate-containing thin-film preparation” value [5] was “began to show some decomposition”, the “stability of solid preparations of the pure compound” value [5] was “insufficiently stable for pharmaceutical use” and the “stability of thin-film preparations” value [5] was “not stable for periods of even one week”. The “Percent Remaining After One Week” value ([5]; solid cake from 1,1-dimethylethanol) was 56%, the “Percent Remaining After One Week” value ([5]; thin film from 95% ethanol) was 40% and the “Percent Remaining After One Week” value ([5]; thin film from abs. ethanol) was 60%. For the same compound, the remaining at 730 h (physchem; 95% ethanol) was 100%, the remaining at 3650 h (physchem; 95% ethanol) was 100% and the remaining at 3650 h (physchem; abs. ethanol) was 100%. The remaining at 730 h (physchem; absolute ethanol) was 100%, the remaining at 730 h (physchem; dimethylacetamide) was 95% and the remaining at 730 h (physchem; dimethylsulfoxide) was 93%. For the same compound, the remaining at 730 h (physchem; propylene glycol) was 100% and the remaining at 3650 h (physchem; propylene glycol) was 100%.

For CCC(C=CC1OC(=O)C=CC1C)=CC(C)CC=CC(C)=CC(C)C(=O)C(C)C(O)C(C)CC(C)=CC(=O)O (stereo not drawn) [calcium salt of CL-1957A], the solubility in ethanol [1] was “soluble in ethanol” and the solubility in water [1] was “insoluble in water”.

With CCC(C=CC1OC(=O)C=CC1C)=CC(C)CC=CC(C)=CC(C)C(=O)C(C)C(O)C(C)CC(C)=CC(=O)O (stereo not drawn) [CL-1957A triethylammonium salt] the solubility in water [1] was “soluble in water”.
